ChEMBL document CHEMBL3769377, “A synthesis, in silico, in vitro and in vivo study of thieno[2,3-b]pyridine anticancer analogues” (Medchemcomm, 2015)
Activity calls are given as the source filed them. The rule behind the calls is not given here.

Key:
[1] = Growth inhibition of human NCI60 cells assessed as cell growth at 10 uM after 48 hrs by sulforhodamine B assay relative to control; assay type: functional; conditions: NCI60, 48 h, read-out: Activity
786-0 [2] = assay: Cytotoxicity against human 786-0 cells after 48 hrs by sulforhodamine B assay; assay type: functional; conditions: 786-0, 48 h; for CC50: read-out: LC50 (the source's name)
MDA-MB-468 [3] = assay: Cytotoxicity against human MDA-MB-468 cells after 48 hrs by sulforhodamine B assay; assay type: functional; conditions: MDA-MB-468, 48 h; for CC50: read-out: LC50 (the source's name)
[4] = Cytotoxicity against human SF539 cells after 48 hrs by sulforhodamine B assay; assay type: functional; conditions: SF-539, 48 h; for CC50: read-out: LC50 (the source's name)
SF-539 [5] = assay: Cytotoxicity against human SF539 cells assessed as assessed as cell death at 100 uM after 48 hrs by sulforhodamine B assay; assay type: functional, cell-based
786-0 [6] = assay: Cytotoxicity against human 786-0 cells assessed as cell death at 100 uM after 48 hrs by sulforhodamine B assay; assay type: functional, cell-based
MDA-MB-435 [7] = assay: Cytotoxicity against human MDA-MB-435 cells after 48 hrs by sulforhodamine B assay; assay type: functional; conditions: MDA-MB-435, 48 h; for CC50: read-out: LC50 (the source's name)
MDA-MB-468 [8] = assay: Cytotoxicity against human MDA-MB-468 cells assessed as cell death at 100 uM after 48 hrs by sulforhodamine B assay; assay type: functional, cell-based
MDA-MB-435 [9] = assay: Cytotoxicity against human MDA-MB-435 cells assessed as cell death at 100 uM after 48 hrs by sulforhodamine B assay; assay type: functional, cell-based
[10] = biological target: Tyrosyl-DNA phosphodiesterase 1 (Homo sapiens, UniProt Q9NUW8); assay: Inhibition of recombinant human N-terminal His-tagged TDP1 (1824 bp) expressed in Escherichia coli BL21(DE3) cells using 5'-(5,6 FAM-AAC GTC AGG GTC TTC C-BHQ1)-3' as substrate measured every 1 min by RT-PCR method
Chain of Tyrosyl-DNA phosphodiesterase 1 (Q9NUW8 whole entry): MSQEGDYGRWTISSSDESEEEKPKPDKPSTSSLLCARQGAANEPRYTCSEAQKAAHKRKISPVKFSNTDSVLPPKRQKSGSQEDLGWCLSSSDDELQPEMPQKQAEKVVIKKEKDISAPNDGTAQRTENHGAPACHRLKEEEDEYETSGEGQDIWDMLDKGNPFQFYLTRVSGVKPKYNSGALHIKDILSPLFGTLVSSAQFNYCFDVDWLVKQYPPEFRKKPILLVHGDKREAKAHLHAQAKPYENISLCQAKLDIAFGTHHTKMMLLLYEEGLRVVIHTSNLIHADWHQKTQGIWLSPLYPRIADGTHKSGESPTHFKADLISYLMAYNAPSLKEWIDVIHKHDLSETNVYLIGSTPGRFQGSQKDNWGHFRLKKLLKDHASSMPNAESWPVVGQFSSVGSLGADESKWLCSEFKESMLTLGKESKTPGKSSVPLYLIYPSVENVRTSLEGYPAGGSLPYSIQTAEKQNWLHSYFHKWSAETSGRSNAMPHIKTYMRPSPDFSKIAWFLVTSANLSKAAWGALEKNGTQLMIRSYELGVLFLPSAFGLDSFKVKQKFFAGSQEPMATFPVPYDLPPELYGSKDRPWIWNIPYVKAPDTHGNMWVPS

SF-539 [11] = assay: Cytotoxicity against human SF539 cells assessed as growth inhibition at 100 uM after 48 hrs by sulforhodamine B assay; assay type: functional, cell-based

| Structure (SMILES) | growth at 10 µM [1] | GI50 (786-0 [2]) | GI50 (MDA-MB-468 [3]) | GI50 [4] | Activity (786-0 [6]) | GI50 (MDA-MB-435 [7]) | Activity (MDA-MB-468 [8]) | further results |
| --- | --- | --- | --- | --- | --- | --- | --- | --- |
| Nc1c(C(=O)Nc2ccccc2C(F)(F)F)sc2nc3c(cc12)CCCC3 | 90.6% | – | – | – | – | – | – | – |
| Nc1c(C(=O)Nc2ccccc2F)sc2nc3c(cc12)CCCC3 | 34.5% | – | – | – | – | – | – | – |
| COc1cccc(NC(=O)c2sc3nc4c(cc3c2N)CCCC4)c1 | 28.2% | 420 nM | 239 nM | 368 nM | inactive | 150 nM | inactive | Activity (SF-539 [5]): inactive; CC50 (MDA-MB-435 [7]): 13500 nM |
| CCC1CCc2nc3sc(C(=O)Nc4ccccc4F)c(N)c3cc2C1 (racemic) | 61.1% | 41700 nM | 347 nM | 10000 nM | inactive | 133 nM | inactive | Activity (SF-539 [5]): inactive; Activity (MDA-MB-435 [9]): inactive |
| Nc1c(C(=O)Nc2ccccc2)sc2nc3c(cc12)CCCC3 | 30.3% | 656 nM | 303 nM | 416 nM | inactive | 172 nM | inactive | Activity (SF-539 [5]): inactive; Activity (MDA-MB-435 [9]): inactive |
| Nc1c(C(=O)Nc2ccccc2)sc2nc3c(cc12)CCCCCC3 | 12.5% | 354 nM | 291 nM | 217 nM | – | 52 nM | inactive | CC50 (786-0 [2]): 10200 nM; CC50 [4]: 3200 nM; CC50 (MDA-MB-435 [7]): 897 nM |
| Nc1c(C(=O)Nc2c(Cl)cccc2Cl)sc2nc3c(cc12)CCCCC3 | 52.1% | – | – | – | – | – | – | – |
| Nc1c(C(=O)Nc2ccccc2Cl)sc2nc3c(cc12)CCCCCC3 | 29% | 1750 nM | 2250 nM | 2650 nM | – | 275 nM | inactive | CC50 (786-0 [2]): 6120 nM; IC50 [10]: 1000 nM; CC50 [4]: 46600 nM; CC50 (MDA-MB-435 [7]): 20900 nM |
| Nc1c(C(=O)Nc2ccccc2Cl)sc2nc3c(cc12)CCCC3 | 99.4% | – | – | – | – | – | – | – |
| Nc1c(C(=O)Nc2ccccc2C(F)(F)F)sc2nc3c(cc12)CCC3 | – | – | – | – | – | – | – | IC50 [10]: > 15000 nM |
| CCC1CCc2nc3sc(C(=O)Nc4cccc(F)c4)c(N)c3cc2C1 (racemic) | 60.3% | 701 nM | 471 nM | – | inactive | 110 nM | inactive | Activity (SF-539 [5]): inactive; growth inhibition (GI) (SF-539 [11]): inactive; Activity (MDA-MB-435 [9]): inactive |
| Nc1c(C(=O)Nc2cccc(C(F)(F)F)c2)sc2nc3c(cc12)CCCCCC3 | 7% | 1600 nM | 798 nM | 1710 nM | – | 2100 nM | – | CC50 (786-0 [2]): 6070 nM; IC50 [10]: 500 nM; CC50 (MDA-MB-468 [3]): 15400 nM; CC50 [4]: 6650 nM; CC50 (MDA-MB-435 [7]): 59200 nM |
| Nc1c(C(=O)Nc2cccc(C(F)(F)F)c2)sc2nc3c(cc12)C(=O)CC3 | – | – | – | – | – | – | – | IC50 [10]: 1700 nM |
| CCC1CCc2nc3sc(C(=O)Nc4cccc(C)c4)c(N)c3cc2C1 (racemic) | 69.7% | – | – | – | – | – | – | – |
| Cc1cccc(NC(=O)c2sc3nc4c(cc3c2N)CCC4)c1C | 23.6% | 367 nM | 197 nM | 241 nM | – | 52 nM | – | CC50 (786-0 [2]): 14300 nM; CC50 (MDA-MB-468 [3]): 71200 nM; CC50 [4]: 72400 nM; CC50 (MDA-MB-435 [7]): 22700 nM |
| Nc1c(C(=O)Nc2ccccc2C(F)(F)F)sc2nc3c(cc12)CCCCCC3 | 80.2% | – | – | – | – | – | – | – |
| Nc1c(C(=O)Nc2cccc(C(F)(F)F)c2)sc2nc3c(cc12)CCCC3 | 88.1% | – | – | – | – | – | – | – |
| Nc1c(C(=O)Nc2ccccc2)sc2nc3c(cc12)CCC3 | 79.5% | – | – | – | – | – | – | – |
| Nc1c(C(=O)Nc2cccc(C(F)(F)F)c2)sc2nc3c(cc12)CCCCC3 | 10% | 1580 nM | 394 nM | 1940 nM | – | 2530 nM | – | CC50 (786-0 [2]): 6240 nM; CC50 (MDA-MB-468 [3]): 31000 nM; CC50 [4]: 11300 nM; Activity (MDA-MB-435 [9]): inactive |
| CCC1CCc2nc3sc(C(=O)Nc4ccccc4C)c(N)c3cc2C1 (racemic) | 36.5% | 371 nM | 244 nM | 398 nM | inactive | 104 nM | inactive | Activity (SF-539 [5]): inactive |
| Cc1cccc(NC(=O)c2sc3nc4c(cc3c2N)CCCC4)c1 | 39.9% | 4130 nM | 1750 nM | 4740 nM | inactive | 305 nM | inactive | Activity (SF-539 [5]): inactive; Activity (MDA-MB-435 [9]): inactive |
| Nc1c(C(=O)Nc2ccccc2F)sc2nc3c(cc12)CCC3 | 102% | – | – | – | – | – | – | – |
| Nc1c(C(=O)Nc2ccccc2)sc2nc3c(cc12)CCCCC3 | 14.7% | 465 nM | 254 nM | 307 nM | inactive | 205 nM | inactive | CC50 [4]: 94300 nM; Activity (MDA-MB-435 [9]): inactive |
